In paper PMC4770093, “The role of kinetic context in apparent biased agonism at GPCRs” (Nature Communications, 2016):

What was measured:
D2LR [1] = molecular target: T1, D2LR (Homo sapiens, UniProt P14416); test: xCELLigence cellular impedance (CI) assay; type: cell-based; parameters: expressed in transfected cells; conditions: for Emax CI: relative to the maximal response of ropinirole; for Log(τ/KA) Cellular impedance / ΔLog(τ/KA) Cellular impedance: 5 minute timepoint; for Log(τ/KA) Cellular impedance: Flp-In-CHO-D2LR; for ΔLog(τ/KA) Cellular impedance: dopamine as reference agonist
Method: Changes in CI on ligand stimulation were measured using the xCELLigence system (Roche Applied Science). The baseline cell index of each well of a 96-well E-plate was measured in the presence of growth medium before cell seeding. Cells were seeded at a density of 20,000 cells per well and grown for 16–20 h followed by 4 h serum starvation. Cells were treated with the ligands and the cell index values were obtained immediately after ligand stimulation every 15 s for a total time of 90 min. The retrieved cell index values were then normalized by dividing the cell index at the time of ligand addition followed by subtraction of the vehicle control at each time point.

D2LR [2] = molecular target: T1, D2LR; test: GαoB G protein activation (BRET); type: cell-based; parameters: expressed in transfected cells; conditions: for Emax Gao: relative to the maximal response of ropinirole; for Log(τ/KA) GαoB activation / ΔLog(τ/KA) GαoB activation: 5 minute timepoint; for Log(τ/KA) GαoB activation: Flp-In-CHO-D2LR; for ΔLog(τ/KA) GαoB activation: dopamine as reference agonist; for change in potency over time in the GαoB activation assay: time points from 2 to 90 min;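 on all read-outs here: Flp-In-CHO cells stably expressing D2LR, transiently transfected, agonist-stimulated in HBSS at 37 °C, net BRET read after coelenterazine, vehicle control subtracted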
Method: (§1) G protein activation. Flp-In-CHO cells stably expressing the D2LR were seeded at a density of 2,000,000 cells per 10-cm dish and were transfected the following day using polyethylenimine as the transfection reagent. […] Twenty-four hours after transfection, the cells were plated into 96-well CulturPlates (PerkinElmer) and grown overnight. The cells were equilibrated in Hank's balanced salt solution at 37 °C before starting the experiment. The cells were stimulated with the agonists for the indicated timeframes when the BRET readings were captured. Coelenterazine (Promega) was added at a final concentration of 5 μM at least 3 min before measurement. […] Net BRET was determined by subtraction of the vehicle control from the agonist-induced response.

D2LR [3] = molecular target: T1, D2LR; test: Gαi1 G protein activation (BRET); type: cell-based; parameters: expressed in transfected cells; conditions: 5 minute timepoint; for Log(τ/KA) Gαi1 activation: Flp-In-CHO-D2LR; for ΔLog(τ/KA) Gαi1 activation: dopamine as reference agonist
Method: as §1

D2LR [4] = molecular target: T1, D2LR; test: β-Arrestin-2 recruitment (BRET); type: cell-based; parameters: expressed in transfected cells; conditions: 5 minute timepoint
Method: β-Arrestin-2 recruitment. […] To assess β-arrestin-2 recruitment to the D2LR, the cells were transfected with 1 μg Rluc8-tagged D2LR, 4 μg YFP–β-arrestin-2 and 2 μg GRK2. […] The cells were incubated with Coelenterazine (Promega) at a final concentration of 5 μM for 5 min, followed by stimulation with the agonists for an additional 5 min before the BRET readings were captured.

D2LR [5] = molecular target: T1, D2LR; test: Quantification of biased agonism between pathways (operational model, LogBias); type: cell-based; parameters: expressed in transfected cells
From the text: where Top and Bottom represent the maximal and minimal asymptote of the dose–response curve, [A] is the molar concentration of agonist and EC50 is the molar concentration of agonist required to give a response half way between bottom and top. Dose–response data were fitted to the following form of the operational model of agonism[12] to allow the quantification of biased agonism
where Em is the maximal possible response of the system, Basal is the basal level of response, KA represents the equilibrium dissociation constant of the agonist (A) and τ is an index of the signalling efficacy of the agonist that is defined as RT/KE, where RT is the total number of receptors and KE is the coupling efficiency of each agonist-occupied receptor, and n is the slope of the transducer function that links occupancy to response. The analysis assumes that the transduction machinery used for a given cellular pathway are the same for all agonists, such that the Em and transducer slope (n) are shared between agonists. Data for all compounds for each pathway were fit globally, to determine values of KA and τ. Biased agonism was quantified as previously described. […] The relative bias can then be calculated for each agonist at the two different signalling pathways by subtracting the Δlog(τ/KA) of one pathway from the other to give a ΔΔlog(τ/KA) value, which is a measure of bias. […] All affinity (pKi or pKA), potency (pEC50) and transduction ratio (log(τ/KA)) parameters were estimated as logarithms. When fold changes in bias are described, this was calculated by converting values of ΔΔlog(τ/KA) to the corresponding antilog value. […] Thus, as the application of t-tests and analyses of variance assume Gaussian distribution, estimating the parameters as logarithms allows valid statistical comparison. All results are expressed as the mean±s.e.m. As such, we performed a Brown–Forsythe test (Graphpad prism 6) to assure ourselves of equal variance when such parameters are compared.

D2R = test: Simulation of receptor occupancy over time from kon and koff; conditions: simulation with a KD concentration of each agonist
From the text: We extended these studies with a Tag-lite receptor binding assay using a D2R construct with an amino-terminal SNAP tag and the fluorescently labelled agonist (±)-4′-amino-2-(N-phenethyl-N-propyl)-amino-5-hydroxytetralin (PPHT). […] The association rate of a ligand is often thought to be diffusion limited. […] Using these kinetic parameters, we performed a simulation to estimate the receptor occupancy of a KD concentration of each agonist over time (Fig. 4e).
Kinetic binding parameters of kon (a), koff (b) and t1/2 (c) were determined in a competition kinetic binding assay using a Tag-lite binding assay and the fluorescently labelled agonist PPHT as the tracer ligand (Supplementary Table 6). […] All values are expressed as mean±s.e.m. from three experiments. (e) The values of kon and koff obtained in the competition kinetic assay were used to simulate receptor occupancy over time using equation (9) and the concentration of ligand equivalent to its KD (see Supplementary Table 6).
where Ymax reflects maximum binding of a concentration of ligand and kob is determined by equation (8).

[6] = 5 minute timepoint, dopamine as reference agonist

T1 sequence (P14416 whole entry): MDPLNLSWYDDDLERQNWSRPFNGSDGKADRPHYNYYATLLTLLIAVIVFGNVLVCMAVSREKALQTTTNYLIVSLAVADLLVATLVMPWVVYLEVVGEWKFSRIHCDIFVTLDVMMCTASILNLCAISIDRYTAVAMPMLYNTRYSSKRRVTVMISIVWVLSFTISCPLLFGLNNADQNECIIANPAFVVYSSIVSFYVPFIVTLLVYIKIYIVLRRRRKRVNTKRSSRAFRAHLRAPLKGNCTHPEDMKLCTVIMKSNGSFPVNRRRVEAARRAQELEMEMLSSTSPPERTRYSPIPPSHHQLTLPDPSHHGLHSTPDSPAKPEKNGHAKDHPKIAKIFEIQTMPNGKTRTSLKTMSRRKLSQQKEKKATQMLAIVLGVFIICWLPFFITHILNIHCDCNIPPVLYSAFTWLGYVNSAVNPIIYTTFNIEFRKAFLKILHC

CN1CCN(c2cccc3[nH]c(=O)oc23)CC1 [Pardoprunox, pardoprunox]
pEC50 CI (D2LR [1]; 2 min): 9.30
Emax CI (D2LR [1]; 2 min): 75 ± 3.6
pEC50 CI (D2LR [1]; 5 min): 9.41
Emax CI (D2LR [1]; 5 min): 76 ± 2.7
Log(τ/KA) Cellular impedance (D2LR [1]): 9.29 ± 0.06
ΔLog(τ/KA) Cellular impedance (D2LR [1]): 0.74 ± 0.07
pEC50 CI (D2LR [1]; 10 min): 9.22
Emax CI (D2LR [1]; 10 min): 70 ± 2.2
pEC50 CI (D2LR [1]; 15 min): 9.20
Emax CI (D2LR [1]; 15 min): 67 ± 2.5
pEC50 CI (D2LR [1]; 30 min): 9.06
Emax CI (D2LR [1]; 30 min): 62 ± 2.9
pEC50 CI (D2LR [1]; 45 min): 9.02
Emax CI (D2LR [1]; 45 min): 59 ± 2.4
pEC50 CI (D2LR [1]; 60 min): 8.95
Emax CI (D2LR [1]; 60 min): 57 ± 2.2
pEC50 CI (D2LR [1]; 75 min): 8.87
Emax CI (D2LR [1]; 75 min): 54 ± 2.1
pEC50 CI (D2LR [1]; 90 min): 8.80
Emax CI (D2LR [1]; 90 min): 52 ± 2.0
pEC50 Gao (D2LR [2]; 2 min): 7.78
Emax Gao (D2LR [2]; 2 min): 82 ± 4.5
pEC50 Gao (D2LR [2]; 5 min): 7.77
Emax Gao (D2LR [2]; 5 min): 79 ± 4.3
Log(τ/KA) GαoB activation (D2LR [2]): 7.70 ± 0.10
ΔLog(τ/KA) GαoB activation (D2LR [2]): 0.45 ± 0.13
pEC50 Gao (D2LR [2]; 10 min): 8.00
Emax Gao (D2LR [2]; 10 min): 76 ± 3.2
pEC50 Gao (D2LR [2]; 15 min): 8.21
Emax Gao (D2LR [2]; 15 min): 81 ± 2.8
pEC50 Gao (D2LR [2]; 30 min): 8.70
Emax Gao (D2LR [2]; 30 min): 84 ± 3.1
pEC50 Gao (D2LR [2]; 45 min): 8.71
Emax Gao (D2LR [2]; 45 min): 85 ± 3.1
pEC50 Gao (D2LR [2]; 60 min): 8.64
Emax Gao (D2LR [2]; 60 min): 86 ± 2.7
pEC50 Gao (D2LR [2]; 75 min): 8.34
Emax Gao (D2LR [2]; 75 min): 80 ± 4.9
pEC50 Gao (D2LR [2]; 90 min): 8.58
Emax Gao (D2LR [2]; 90 min): 87 ± 2.5
change in potency over time in the GαoB activation assay (D2LR [2]): sixfold
Log(τ/KA) Gαi1 activation (D2LR [3]): 8.10 ± 0.13
ΔLog(τ/KA) Gαi1 activation (D2LR [3]): 0.93 ± 0.16
Log(τ/KA) β-arrestin2 (D2LR [4]; ND = no agonist activity detected): 6.80 ± 0.29
ΔLog(τ/KA) β-arrestin2 (D2LR [4]; dopamine as reference agonist): 0.47 ± 0.32
LogBias CI – pERK1/2 (D2LR [5]; [6]): 0.24 ± 0.12
LogBias Gαi1 – CI (D2LR [5]; [6]): 0.19 ± 0.18
LogBias Gαi1 – GαoB (D2LR [5]; [6]): 0.48 ± 0.21
LogBias Gαi1 – cAMP (D2LR [5]; [6]): 0.35 ± 0.17
LogBias Gαi1 – pERK1/2 (D2LR [5]; [6]): 0.43 ± 0.19
LogBias GαoB – CI (D2LR [5]; [6]): -0.29 ± 0.15
LogBias GαoB – cAMP (D2LR [5]; [6]): -0.13 ± 0.15
LogBias GαoB – pERK1/2 (D2LR [5]; [6]): -0.05 ± 0.16
LogBias cAMP – CI (D2LR [5]; [6]): -0.16 ± 0.10
LogBias cAMP – pERK1/2 (D2LR [5]; [6]): 0.08 ± 0.12
LogBias β-arr2 – CI (D2LR [5]; [6]): -0.28 ± 0.33
LogBias β-arr2 – Gαi1 (D2LR [5]; [6]): -0.47 ± 0.36
LogBias β-arr2 – GαoB (D2LR [5]; [6]): 0.01 ± 0.34
LogBias β-arr2 – cAMP (D2LR [5]; [6]): -0.12 ± 0.33
LogBias β-arr2 – pERK1/2 (D2LR [5]; [6]): -0.04 ± 0.33
time to maximal receptor occupancy (D2R): ≤ 1 min

CCCN1CCC[C@@H](c2cccc(O)c2)C1 [S-3PPP, (S)-(-)-3-(3-hydroxyphenyl)-N-propylpiperidine]
Emax CI (D2LR [1]; 2 min): 46 ± 3.7
Emax CI (D2LR [1]; 5 min): 46 ± 3.0
Log(τ/KA) Cellular impedance (D2LR [1]): 7.34 ± 0.10
ΔLog(τ/KA) Cellular impedance (D2LR [1]): -1.22 ± 0.11
Emax CI (D2LR [1]; 10 min): 36 ± 2.5
Emax CI (D2LR [1]; 15 min): 32 ± 2.6
Emax CI (D2LR [1]; 30 min): 26 ± 2.5
Emax CI (D2LR [1]; 45 min): 23 ± 2.5
Emax CI (D2LR [1]; 60 min): 21 ± 2.5
Emax CI (D2LR [1]; 75 min): 19 ± 2.4
Emax CI (D2LR [1]; 90 min): 17 ± 2.3
Emax Gao (D2LR [2]; 2 min): 64 ± 5.6
Emax Gao (D2LR [2]; 5 min): 68 ± 3.0
Log(τ/KA) GαoB activation (D2LR [2]): 6.40 ± 0.11
ΔLog(τ/KA) GαoB activation (D2LR [2]): -0.84 ± 0.14
Emax Gao (D2LR [2]; 10 min): 73 ±3.1
Emax Gao (D2LR [2]; 15 min): 76 ± 2.2
Emax Gao (D2LR [2]; 30 min): 74 ± 3.0
Emax Gao (D2LR [2]; 45 min): 72 ± 2.2
Emax Gao (D2LR [2]; 60 min): 72 ± 2.3
Emax Gao (D2LR [2]; 90 min): 77 ± 2.6
change in potency over time in the GαoB activation assay (D2LR [2]): twofold
Log(τ/KA) Gαi1 activation (D2LR [3]): 6.60 ± 0.12
ΔLog(τ/KA) Gαi1 activation (D2LR [3]): -0.58 ± 0.15
bias between the activation of Gαi1 and all other assays apart from the activation of GαoB (D2LR [5]; 5 min, reference dopamine): less than tenfold
LogBias Gαi1 – CI (D2LR [5]; [6]): 0.64 ± 0.19
LogBias Gαi1 – GαoB (D2LR [5]; [6]): 0.27 ± 0.21
LogBias Gαi1 – cAMP (D2LR [5]; [6]): 0.83 ± 0.17
LogBias GαoB – CI (D2LR [5]; [6]): 0.37 ± 0.18
LogBias GαoB – cAMP (D2LR [5]; [6]): 0.56 ± 0.16
LogBias cAMP – CI (D2LR [5]; [6]): -0.19 ± 0.13
time to maximal receptor occupancy (D2R): ≤ 1 min
